Measured values as given in PubChem BioAssay AID2060503 (Molecular Pharmacology Branch, DTP, NCI, 2025).
pIC50: −log10 of the molar value.

System: 817829-284-R-J1-PDC complex spheroids, viability
Assay: Anticancer human tumor 817829-284-R-J1-PDC patient-derived colon adenocarcinoma cell line growth inhibition [GQUAD]
Conditions: for pIC50: curve of first compound; for viability, T/C: stronger effect = lower value
Outline: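 Viability of tumor cells grown as complex spheroids with endothelial and stromal cells, exposed to drug combinations. Top concentration at or near clinical Cmax (else 10 microM), diluted in half-log increments.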

[1] = second compound 0.0316 µM, first compound 0.000999 µM
[2] = second compound 0.0316 µM, first compound 0.00316 µM
[3] = second compound 0.0316 µM, first compound 0.00999 µM
[4] = second compound 0.0316 µM, first compound 0.0316 µM
[5] = second compound 0.0316 µM, first compound 0.0999 µM
[6] = second compound 0.0316 µM, first compound 0.316 µM
[7] = second compound 0.1 µM, first compound 0.000999 µM
[8] = second compound 0.1 µM, first compound 0.00316 µM
[9] = second compound 0.1 µM, first compound 0.00999 µM
[10] = second compound 0.1 µM, first compound 0.0316 µM
[11] = second compound 0.1 µM, first compound 0.0999 µM
[12] = second compound 0.1 µM, first compound 0.316 µM
[13] = second compound 0.316 µM, first compound 0.000999 µM
[14] = second compound 0.316 µM, first compound 0.00316 µM
[15] = second compound 0.316 µM, first compound 0.00999 µM
[16] = second compound 0.316 µM, first compound 0.0316 µM
[17] = second compound 0.316 µM, first compound 0.0999 µM
[18] = second compound 0.316 µM, first compound 0.316 µM
[19] = second compound 1 µM, first compound 0.000999 µM
[20] = second compound 1 µM, first compound 0.00316 µM
[21] = second compound 1 µM, first compound 0.00999 µM
[22] = second compound 1 µM, first compound 0.0316 µM
[23] = second compound 1 µM, first compound 0.0999 µM
[24] = second compound 1 µM, first compound 0.316 µM
[25] = second compound 3.16 µM, first compound 0.000999 µM
[26] = second compound 3.16 µM, first compound 0.00316 µM
[27] = second compound 3.16 µM, first compound 0.00999 µM
[28] = second compound 3.16 µM, first compound 0.0316 µM
[29] = second compound 3.16 µM, first compound 0.0999 µM
[30] = second compound 3.16 µM, first compound 0.316 µM
[31] = second compound 10 µM, first compound 0.000999 µM
[32] = second compound 10 µM, first compound 0.00316 µM
[33] = second compound 10 µM, first compound 0.00999 µM
[34] = second compound 10 µM, first compound 0.0316 µM
[35] = second compound 10 µM, first compound 0.0999 µM
[36] = second compound 10 µM, first compound 0.316 µM
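Note: spheroids exposed to agents for 7 days before readout.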
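Throughout, for viability, T/C: percent viability relative to DMSO vehicle control taken as 100%.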

Structure (SMILES): CC[C@@]1(O)C(=O)OCc2c1cc1n(c2=O)Cc2cc3c(CN(C)C)c(O)ccc3nc2-1 + Cc1[nH]c2ccc(F)cc2c1-c1nc2c3cccnc3c3ncccc3c2[nH]1
- pIC50 (second compound 0.0316 µM): 7.32
- pIC50 (second compound 0.1 µM): 7.22
- pIC50 (second compound 0.316 µM): 7.29
- pIC50 (second compound 1 µM): 7.28
- pIC50 (second compound 3.16 µM): 7.58
- pIC50 (second compound 10 µM): > 9.00
- viability, T/C [1]: 119%
- viability, T/C [2]: 84.5%
- viability, T/C [3]: 92.7%
- viability, T/C [4]: 51.8%
- viability, T/C [5]: 34.9%
- viability, T/C [6]: 26.6%
- viability, T/C [7]: 98.8%
- viability, T/C [8]: 104%
- viability, T/C [9]: 88.6%
- viability, T/C [10]: 70.9%
- viability, T/C [11]: 33.1%
- viability, T/C [12]: 27.1%
- viability, T/C [13]: 90%
- viability, T/C [14]: 111%
- viability, T/C [15]: 101%
- viability, T/C [16]: 63.6%
- viability, T/C [17]: 34.2%
- viability, T/C [18]: 26.1%
- viability, T/C [19]: 91.8%
- viability, T/C [20]: 110%
- viability, T/C [21]: 109%
- viability, T/C [22]: 64.8%
- viability, T/C [23]: 32.4%
- viability, T/C [24]: 29.1%
- viability, T/C [25]: 108%
- viability, T/C [26]: 111%
- viability, T/C [27]: 95.1%
- viability, T/C [28]: 41.9%
- viability, T/C [29]: 18.2%
- viability, T/C [30]: 15.7%
- viability, T/C [31]: 11%
- viability, T/C [32]: 22.5%
- viability, T/C [33]: 26.1%
- viability, T/C [34]: 7.2%
- viability, T/C [35]: 5.98%
- viability, T/C [36]: 5.1%

Structure (SMILES): CCc1c2c(nc3ccc(O)cc13)-c1cc3c(c(=O)n1C2)COC(=O)[C@]3(O)CC + Cc1[nH]c2ccc(F)cc2c1-c1nc2c3cccnc3c3ncccc3c2[nH]1
- pIC50 (second compound 0.0316 µM): 8.76
- pIC50 (second compound 0.1 µM): 9.00
- pIC50 (second compound 0.316 µM): > 9.00
- pIC50 (second compound 1 µM): > 9.00
- pIC50 (second compound 3.16 µM): > 9.00
- pIC50 (second compound 10 µM): > 9.00
- viability, T/C [1]: 65.2%
- viability, T/C [2]: 28.1%
- viability, T/C [3]: 30.3%
- viability, T/C [4]: 13.1%
- viability, T/C [5]: 8.01%
- viability, T/C [6]: 4.19%
- viability, T/C [7]: 51.3%
- viability, T/C [8]: 33.6%
- viability, T/C [9]: 27.8%
- viability, T/C [10]: 14.9%
- viability, T/C [11]: 9.56%
- viability, T/C [12]: 4.38%
- viability, T/C [13]: 43.5%
- viability, T/C [14]: 35.6%
- viability, T/C [15]: 23.6%
- viability, T/C [16]: 16.7%
- viability, T/C [17]: 8.62%
- viability, T/C [18]: 5.24%
- viability, T/C [19]: 43%
- viability, T/C [20]: 30.6%
- viability, T/C [21]: 24.6%
- viability, T/C [22]: 15%
- viability, T/C [23]: 8.8%
- viability, T/C [24]: 4.41%
- viability, T/C [25]: 30.3%
- viability, T/C [26]: 16.4%
- viability, T/C [27]: 13.8%
- viability, T/C [28]: 10.8%
- viability, T/C [29]: 5.28%
- viability, T/C [30]: 2.61%
- viability, T/C [31]: 6.96%
- viability, T/C [32]: 7.65%
- viability, T/C [33]: 4.74%
- viability, T/C [34]: 5.66%
- viability, T/C [35]: 3.66%
- viability, T/C [36]: 1.35%

Structure (SMILES): COc1cc(C2c3cc4c(cc3C(OC3OC5COC(C)OC5C(O)C3O)C3COC(=O)C23)OCO4)cc(OC)c1O (stereo unspecified) + Cc1[nH]c2ccc(F)cc2c1-c1nc2c3cccnc3c3ncccc3c2[nH]1
- pIC50 (second compound 0.0316 µM): 6.74
- pIC50 (second compound 0.1 µM): 6.67
- pIC50 (second compound 0.316 µM): 6.72
- pIC50 (second compound 1 µM): 6.67
- pIC50 (second compound 3.16 µM): 6.95
- pIC50 (second compound 10 µM): 7.35
- viability, T/C [4]: 110%
- viability, T/C (second compound 0.0316 µM, first compound 0.1 µM): 67.2%
- viability, T/C [6]: 31.6%
- viability, T/C (second compound 0.0316 µM, first compound 1 µM): 27.2%
- viability, T/C (second compound 0.0316 µM, first compound 3.16 µM): 28.1%
- viability, T/C (second compound 0.0316 µM, first compound 10 µM): 10.6%
- viability, T/C [10]: 95.3%
- viability, T/C (second compound 0.1 µM, first compound 0.1 µM): 91.2%
- viability, T/C [12]: 29.5%
- viability, T/C (second compound 0.1 µM, first compound 1 µM): 31.8%
- viability, T/C (second compound 0.1 µM, first compound 3.16 µM): 26%
- viability, T/C (second compound 0.1 µM, first compound 10 µM): 9.21%
- viability, T/C [16]: 86.7%
- viability, T/C (second compound 0.316 µM, first compound 0.1 µM): 80.4%
- viability, T/C [18]: 26.4%
- viability, T/C (second compound 0.316 µM, first compound 1 µM): 32.7%
- viability, T/C (second compound 0.316 µM, first compound 3.16 µM): 28.9%
- viability, T/C (second compound 0.316 µM, first compound 10 µM): 9.89%
- viability, T/C [22]: 85.6%
- viability, T/C (second compound 1 µM, first compound 0.1 µM): 89.7%
- viability, T/C [24]: 30.7%
- viability, T/C (second compound 1 µM, first compound 1 µM): 30.4%
- viability, T/C (second compound 1 µM, first compound 3.16 µM): 25.1%
- viability, T/C (second compound 1 µM, first compound 10 µM): 9.74%
- viability, T/C [28]: 109%
- viability, T/C (second compound 3.16 µM, first compound 0.1 µM): 54.1%
- viability, T/C [30]: 16.8%
- viability, T/C (second compound 3.16 µM, first compound 1 µM): 15.2%
- viability, T/C (second compound 3.16 µM, first compound 3.16 µM): 17.8%
- viability, T/C (second compound 3.16 µM, first compound 10 µM): 3.63%
- viability, T/C [34]: 60.5%
- viability, T/C (second compound 10 µM, first compound 0.1 µM): 26.2%
- viability, T/C [36]: 9.53%
- viability, T/C (second compound 10 µM, first compound 1 µM): 8.4%
- viability, T/C (second compound 10 µM, first compound 3.16 µM): 6.82%
- viability, T/C (second compound 10 µM, first compound 10 µM): 2.64%
